# Source: patent US20120184591A1, “METHODS FOR TREATING PROSTATITIS” (WATSON PHARMACEUTICALS, INC., priority 2011, published 2012)
# Columns and labels:
# [1] = Study SI06004: plasma pharmacokinetics of silodosin and metabolites, 8 mg once daily for 7 days; type: in vivo, human; conditions: for Tmax: 8 mg once daily, immediate-release
# Method: FIG. 2 depicts the mean steady-state silodosin plasma concentration versus time profile in fed target-aged subjects after administering 8 mg silodosin QD (from Study SI06004).
# This is illustrated in Table 1 and FIG. 2. Study SI06004 assessed the area under the plasma concentration time curve for silodosin and four of its metabolites, as well as safety and tolerability, following administration of 8 mg once daily for 7 days.
# [2] = test system: patients with CP/CPPS; conditions: 10 mg once daily, versus placebo; cited from earlier work
# [3] = test system: men with CP/CPPS; experiment: 12-week double-blind placebo-controlled Phase II study (NCT00740779): efficacy (NIH-CPSI, SF-12, GRA); type: in vivo, human; conditions: for SF-12 mental component, adjusted mean difference versus placebo (95% CI) / SF-12 mental component, change from baseline, mean ± SD / SF-12 physical component, adjusted mean difference versus placebo (95% CI) / SF-12 physical component, change from baseline, mean ± SD: study end, ITT
# Method: (§1) A 12-week, multicenter, double-blind, placebo-controlled, Phase II study (ClinicalTrials.gov identifier: NCT00740779) was conducted between September 2008 and October 2009. The protocol was approved by an Institutional Review Board before study initiation, and the study was conducted in accordance with the Declaration of Helsinki and the US Code of Federal Regulations. The primary end point was change from baseline to week 12 in the NIH—CPSI total score. Secondary end points included safety; change from baseline in NIH—CPSI pain, urinary, and HRQoL subscores; and change from baseline in SF-12 physical and mental component scores. In addition, responder analyses were conducted for the global response assessment (GRA) and NIH—CPSI at week 12.
# Study participants were recruited from 32 centers across the United States, including mostly community-based practices and a few university medical centers. […] Patients were excluded if they had participated in a study of an investigational agent within the past 30 days, had experienced two or more urinary tract infections within the previous 12 months, or had medical conditions potentially precluding safe study participation or affecting study results, such as significant postural hypotension, abnormal test results of digital rectal examinations (except benign prostate enlargement), prostate-specific antigen >10.0 ng/mL, and liver or renal insufficiency. Patients treated with medications that might confound study results, such as α-blockers (for conditions other than CP/CPPS), 5α-reductase inhibitors, tricyclic antidepressants, androgens, and ketoconazole, had to undergo appropriate washout periods to be eligible.
# (§2) Patients were randomized 1:1:1 to receive silodosin 4 mg, silodosin 8 mg, or placebo once daily with food at breakfast for 12 weeks. Two doses of silodosin were chosen to evaluate the dose dependency of treatment effects in patients with CP/CPPS. The maximum dose of silodosin 8 mg/d was selected based on its established safety and efficacy profile in patients with BPH.
# (§3) Baseline parameters were assessed after a 4-week screening period. All efficacy assessments were made with self-administered patient surveys. Patients completed the NIH—CPSI and subscales, GRA scale, and pain medication usage surveys at baseline and at weeks 4, 8, and 12 of the study. SF-12 was completed at baseline and at study end (week 12 or time of discontinuation). Safety was monitored over the course of the study through adverse events reporting, clinical laboratory tests, and vital signs assessments.
# (§4) All efficacy and safety data were summarized using descriptive statistics for continuous variables and frequency distributions for categorical variables. Efficacy end points were analyzed in the intent-to-treat (ITT) population, which consisted of all randomized patients with a baseline assessment for the NIH—CPSI total score. The primary efficacy variable and continuous secondary variables were analyzed for significance at α=0.05 (with Bonferroni correction for multiple comparisons) using analysis of covariance models with the baseline measurement of the efficacy variable as the covariate and effects of treatment. Because of the small number of patients in many participating centers, study center was not included in statistical analysis models. All analyses were conducted with SAS® v8.2 (SAS Institute Inc., Cary, N.C.). Last observation carried forward (LOCF) was used to impute missing values. […] GRA and NIH—CPSI responder analyses were done with chi-square tests at α=0.025 (two-sided) to account for multiple comparisons.
# [4] = test system: men with CP/CPPS; experiment: 12-week Phase II study (NCT00740779): safety and tolerability (adverse events); type: in vivo, human
# Method: as §1, §2, §3, §4
# [5] = target: T1, α1A receptor (Homo sapiens, UniProt P35348); conditions: cited from earlier work
# T1 sequence (P35348 1-466): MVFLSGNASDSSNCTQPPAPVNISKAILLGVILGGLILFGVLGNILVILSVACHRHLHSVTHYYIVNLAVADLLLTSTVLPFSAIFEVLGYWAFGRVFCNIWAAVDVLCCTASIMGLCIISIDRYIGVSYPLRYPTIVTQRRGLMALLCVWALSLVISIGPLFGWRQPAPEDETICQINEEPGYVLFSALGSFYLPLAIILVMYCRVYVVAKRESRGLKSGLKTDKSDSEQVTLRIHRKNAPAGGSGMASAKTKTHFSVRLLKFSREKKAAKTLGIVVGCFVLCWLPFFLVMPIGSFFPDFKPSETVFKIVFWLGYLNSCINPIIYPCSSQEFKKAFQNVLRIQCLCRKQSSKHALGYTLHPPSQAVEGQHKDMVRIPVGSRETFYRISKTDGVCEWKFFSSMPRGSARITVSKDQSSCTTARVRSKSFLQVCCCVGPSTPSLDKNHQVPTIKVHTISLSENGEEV
# [6] = Study SI07004: silodosin pharmacokinetics after seven daily doses of 4 mg or 8 mg in healthy male subjects; type: in vivo, human; conditions: after 7 days of dosing; for AUC(0-t) / half-life / Cmax / Tmax: male, human, plasma
# Description: FIG. 3 depicts the mean silodosin plasma concentration time profile by dose level and timepoint after multiple doses (from Study SI07004).
# [7] = 8 mg once daily for 7 days, mean (SD)
# [8] = 4 mg, Week 12 ET (early termination counted as nonresponse)
structure (smiles),measurement,setting,value
C[C@H](Cc1cc2c(c(C(N)=O)c1)N(CCCO[C@@H]1O[C@H](C(=O)O)[C@@H](O)[C@H](O)[C@H]1O)CC2)NCCOc1ccccc1OCC(F)(F)F [3213G],AUC(0-24),[1]; [7],1660.5 (647.23) ng * hr/mL
same,Cmax,[1]; [7],102.4 (36.51) ng/mL
same,Tmax,[1]; mean (SD),5.5 (2.29) hr
COc1cc2nc(N(C)CCCNC(=O)C3CCCO3)nc(N)c2cc1OC (stereo not shown) [alfuzosin],Reducing the symptoms of CP/CPPS,[2],not more effective than placebo
C[C@H](Cc1cc2c(c(C(N)=O)c1)N(CCC(=O)O)CC2)NCCOc1ccccc1OCC(F)(F)F [compound 3293],AUC(0-24),[1]; [7],373.0 (141.72) ng * hr/mL
same,Cmax,[1]; [7],34.3 (12.58) ng/mL
same,Tmax,[1]; mean (SD),4.1 (1.29) hr
C[C@H](Cc1cc2c(c(C(N)=O)c1)N(CCCO)CC2)NCCOc1ccccc1OCC(F)(F)F [silodosin],"SF-12 mental component, adjusted mean difference versus placebo (95% CI)",[3]; 4 mg once daily,"1.5 (−1.9, 4.9)"
same,"SF-12 mental component, change from baseline, mean ± SD",[3]; 4 mg once daily,3.2 ± 7.3
same,"SF-12 physical component, adjusted mean difference versus placebo (95% CI)",[3]; 4 mg once daily,"3.0 (0.01, 6.0)"
same,"SF-12 physical component, change from baseline, mean ± SD",[3]; 4 mg once daily,4.2±8.1
same,"NIH-CPSI pain score, adjusted mean difference versus placebo (95% CI)","[3]; 4 mg once daily, week 12, ITT","−1.6 (−3.4, 0.3)"
same,"NIH-CPSI pain score, change from baseline, mean ± SD","[3]; 4 mg once daily, week 12, ITT",−5.9 ± 4.5
same,"NIH-CPSI quality-of-life impact score, adjusted mean difference versus placebo (95% CI)","[3]; 4 mg once daily, week 12, ITT","−1.5 (−2.8, −0.3)"
same,"NIH-CPSI quality-of-life impact score, change from baseline, mean ± SD","[3]; 4 mg once daily, week 12, ITT",−4.1 ± 3.1
same,"NIH-CPSI total score, change from baseline, mean ± SD","[3]; 4 mg once daily, week 12, ITT",−12.1±9.3
same,"NIH-CPSI urinary symptoms score, adjusted mean difference versus placebo (95% CI)","[3]; 4 mg once daily, week 12, ITT","−1.4 (−2.5, −0.3)"
same,"NIH-CPSI urinary symptoms score, change from baseline, mean ± SD","[3]; 4 mg once daily, week 12, ITT",−2.2 ± 2.7
same,"GRA responders, patients",[3]; [8],55.8%
same,"NIH-CPSI responders, patients",[3]; [8],59.6%
same,"SF-12 mental component, adjusted mean difference versus placebo (95% CI)",[3]; 8 mg once daily,"−1.4 (−4.9, 2.1)"
same,"SF-12 mental component, change from baseline, mean ± SD",[3]; 8 mg once daily,0.5 ± 7.2
same,"SF-12 physical component, adjusted mean difference versus placebo (95% CI)",[3]; 8 mg once daily,"2.7 (−0.4, 5.8)"
same,"SF-12 physical component, change from baseline, mean ± SD",[3]; 8 mg once daily,4.4 ± 7.0
same,"NIH-CPSI pain score, adjusted mean difference versus placebo (95% CI)","[3]; 8 mg once daily, week 12, ITT","−0.5 (−2.4, 1.4)"
same,"NIH-CPSI pain score, change from baseline, mean ± SD","[3]; 8 mg once daily, week 12, ITT",−4.9 ± 5.0
same,"NIH-CPSI quality-of-life impact score, adjusted mean difference versus placebo (95% CI)","[3]; 8 mg once daily, week 12, ITT","−0.7 (−2.0, 0.5)"
same,"NIH-CPSI quality-of-life impact score, change from baseline, mean ± SD","[3]; 8 mg once daily, week 12, ITT",−3.5 ± 3.0
same,"NIH-CPSI urinary symptoms score, adjusted mean difference versus placebo (95% CI)","[3]; 8 mg once daily, week 12, ITT","−0.8 (−1.9, 0.3)"
same,"NIH-CPSI urinary symptoms score, change from baseline, mean ± SD","[3]; 8 mg once daily, week 12, ITT",−1.8 ± 2.4
same,"NIH-CPSI responders, patients","[3]; 8 mg, Week 12 ET (early termination counted as nonresponse)",46.7%
same,"Drug-related adverse events leading to discontinuation, all",[4]; 4 mg,3 n
same,Drug-related adverse events leading to discontinuation: RE/libido decreased,[4]; 4 mg,1 n
same,Drug-related adverse events leading to discontinuation: ejaculation failure,[4]; 4 mg,1 n
same,Drug-related adverse events leading to discontinuation: rash,[4]; 4 mg,1 n
same,Patients who discontinued study participation because of a drug-related adverse event,[4]; 4 mg,5.8%
same,"Drug-related adverse event: Headache, patients","[4]; 4 mg, safety population (n = 52)",0 n
same,Patients who experienced serious adverse events,"[4]; 4 mg, not considered drug-related by the investigator (severe urosepsis; moderate syncope)",Two
same,"Drug-related adverse events leading to discontinuation, all",[4]; 8 mg,6 n
same,Drug-related adverse events leading to discontinuation: RE,[4]; 8 mg,4 n
same,Drug-related adverse events leading to discontinuation: nasal congestion,[4]; 8 mg,2 n
same,Patients who discontinued study participation because of a drug-related adverse event,[4]; 8 mg,13.3%
same,Tmax,"[1]; human, plasma, oral, 8 mg, mean (SD), read-out: Tmax",~2.6 h
same,AUC(0-t),"[1]; human, plasma, oral, 8 mg once daily for 7 days, mean (SD), read-out: AUC(0-24)",373 ng·h/mL
same,Cmax,"[1]; human, plasma, oral, 8 mg once daily for 7 days, mean (SD), read-out: Cmax",61.6 ng/mL
same,half-life,"[1]; human, plasma, oral, 8 mg once daily for 7 days, mean ± SD",13.3 h
same,Selectivity for the α1A receptor relative to α1B and α1D receptors,[5],high selectivity
same,"kel, median",[6]; 4 mg,0.0489 h⁻¹
same,"kel, mean","[6]; 4 mg, n 19",0.0552 h⁻¹
same,"kel, median",[6]; 8 mg,0.0573 h⁻¹
same,"kel, mean","[6]; 8 mg, n 21",0.0551 h⁻¹
same,AUC(0-t),"[6]; 4 mg, N = 22, read-out: AUC [0-24], mean",159 ng·h/mL
same,half-life,"[6]; 4 mg, n 19, read-out: t½, mean (converted)",15.3 h
same,AUC(0-t),"[6]; 4 mg, read-out: AUC [0-24], median",156 ng·h/mL
same,Cmax,"[6]; 4 mg, read-out: Cmax, mean",28.4 ng/mL
same,Cmax,"[6]; 4 mg, read-out: Cmax, median",26.1 ng/mL
same,Tmax,"[6]; 4 mg, read-out: Tmax, mean",2.4 h
same,Tmax,"[6]; 4 mg, read-out: Tmax, median",2 h
same,half-life,"[6]; 4 mg, read-out: t½, median (converted)",14.2 h
same,AUC(0-t),"[6]; 8 mg, N = 22, read-out: AUC [0-24], mean",297 ng·h/mL
same,half-life,"[6]; 8 mg, n 21, read-out: t½, mean (converted)",14.4 h
same,AUC(0-t),"[6]; 8 mg, read-out: AUC [0-24], median",276 ng·h/mL
same,Cmax,"[6]; 8 mg, read-out: Cmax, mean",51.1 ng/mL
same,Cmax,"[6]; 8 mg, read-out: Cmax, median",50.3 ng/mL
same,Tmax,"[6]; 8 mg, read-out: Tmax, mean",2.5 h
same,Tmax,"[6]; 8 mg, read-out: Tmax, median",2 h
same,half-life,"[6]; 8 mg, read-out: t½, median (converted)",12.1 h
